Data from patent US11504382B2, “Tricyclic inhibitors of Hepatitis B virus” (Antios Therapeutics, Inc., priority 2018, dated 2022).
pEC50: −log10 of the molar value. Where two headings read alike, the source gives them in different places.

Tested on: HBV
Assay: HBV inhibition assay in HepAD38 cells (extracellular HBV DNA by direct qPCR)
Assay type: cell-based, Hepatitis B virus
Conditions: 96 hours; for pEC50: 8-point dose-response curve, read-out: HBV inh EC50
[1] = Hepatitis B virus, 0.1 μM, relative to non-treated reference, read-out: Anti HBV Activity (conc μM)

Compound	pEC50 (Hepatitis B virus)	inhibition at 0.1 µM [1] [%]	further results
CCOC(=O)N1CC2COc3c(cn(C)c3C(=O)Nc3ccc(F)c(C#N)c3)S(=O)(=O)NC2C1 (single isomer, unassigned) [Example E46, Ethyl 8-((3-cyano-4-fluorophenyl)carbamoyl)-7-methyl-3a,4,10,10a-tetrahydro-1H,7H-dipyrrolo[3,4-b:3′,4′-f][1,4,5]oxathiazocine-2(3H)-carboxylate 5,5-dioxide (Chiral 3aS,10aS or 3aR,10aR - Stereochemistry unknown)]	–	–	Anti HBV Activity (conc μM) (0.1 μM, relative to non-treated reference): B (0.1) (HBV inhibition less than 50% at the concentration indicated in the table)
Cc1cc(NC(=O)c2c3c(cn2C)S(=O)(=O)NC2CN(C(=O)C4(C)COC4)CC2CO3)ccc1F (stereo not drawn) [Example E66, cis-N-(4-fluoro-3-methylphenyl)-7-methyl-2-(3-methyloxetane-3-carbonyl)-2,3,3a,4,10,10a-hexahydro-1H,7H-dipyrrolo[3,4-b:3′,4′-f][1,4,5]oxathiazocine-8-carboxamide 5,5-dioxide]	> 6.00	–	–
Cc1cc(NC(=O)c2c3c(cn2C)S(=O)(=O)NC2CN(C(=O)c4ccc(O)nc4)CC2CO3)ccc1F (stereo not drawn) [Example E53, cis-N-(4-fluoro-3-methylphenyl)-2-(6-hydroxynicotinoyl)-7-methyl-2,3,3a,4,10,10a-hexahydro-1H,7H-dipyrrolo[3,4-b:3′,4′-f][1,4,5]oxathiazocine-8-carboxamide 5,5-dioxide]	–	< 50	–
Cc1cc(NC(=O)c2c3c(cn2C)S(=O)(=O)NC2CN(C(=O)OC(C)(C)C)CC2CO3)ccc1F (stereo not drawn) [Example E145, Trans-Tert-Butyl 8-((4-fluoro-3-methylphenyl)carbamoyl)-7-methyl-3a,4,10,10a-tetrahydro-1H,7H-dipyrrolo[3,4-b:3′,4′-f][1,4,5]oxathiazocine-2(3H)-carboxylate 5,5-dioxide]	> 6.00	–	–
Cc1cc(NC(=O)c2c3c(cn2C)S(=O)(=O)N[C@H]2CN(C(=O)C4COC4)C[C@H]2CO3)ccc1F [Example E108, (3aR,10aR)—N-(4-fluoro-3-methylphenyl)-7-methyl-2-(oxetane-3-carbonyl)-2,3,3a,4,10,10a-hexahydro-1H,7H-dipyrrolo[3,4-b:3′,4′-f][1,4,5]oxathiazocine-8-carboxamide 5,5-dioxide]	> 6.00	–	–
Cc1nnc(C(=O)N2CC3NS(=O)(=O)c4cn(C)c(C(=O)Nc5ccc(F)c(C)c5)c4OCC3(C)C2)o1 (stereo not drawn) [Example E86, cis-N-(4-fluoro-3-methylphenyl)-7,10a-dimethyl-2-(5-methyl-1,3,4-oxadiazole-2-carbonyl)-2,3,3a,4,10,10a-hexahydro-1H,7H-dipyrrolo[3,4-b:3′,4′-f][1,4,5]oxathiazocine-8-carboxamide 5,5-dioxide]	> 6.00	–	–
CNC(=O)N1CC2COc3c(cn(C)c3C(=O)Nc3cc(F)c(F)c(F)c3)S(=O)(=O)NC2C1 (racemic) [Example E23, (3aR,10aR) and (3aS,10aS)—N^2,7-dimethyl-N^8-(3,4,5-trifluorophenyl)-3a,4,10,10a-tetrahydro-1H,7H-dipyrrolo[3,4-b:3′,4′-f][1,4,5]oxathiazocine-2,8(3H)-dicarboxamide 5,5-dioxide]	> 6.00	> 50	–
Cc1cc(NC(=O)c2c3c(cn2C)S(=O)(=O)NC2CN(C(=O)c4ncoc4C)CC2(C)CO3)ccc1F (stereo not drawn) [Example E87, cis-N-(4-fluoro-3-methylphenyl)-7,10a-dimethyl-2-(5-methyloxazole-4-carbonyl)-2,3,3a,4,10,10a-hexahydro-1H,7H-dipyrrolo[3,4-b:3′,4′-f][1,4,5]oxathiazocine-8-carboxamide 5,5-dioxide]	> 6.00	–	–
CCOC(=O)N1C[C@H]2CSc3c(cn(C)c3C(=O)Nc3ccc(F)c(C)c3)S(=O)(=O)N[C@H]2C1 [Example E121, Ethyl (3aR,10aR)-8-((4-fluoro-3-methylphenyl)carbamoyl)-7-methyl-3a,4,10,10a-tetrahydro-1H,7H-dipyrrolo[3,4-c:3′,4′-g][1,6,2]dithiazocine-2(3H)-carboxylate 5,5-dioxide]	> 6.00	–	–
Cc1nnc(C(=O)N2CC3NS(=O)(=O)c4cn(C)c(C(=O)Nc5ccc(F)c(C)c5)c4OCC3(C)C2)o1 (single isomer, unassigned) [Example E96, N-(4-fluoro-3-methylphenyl)-7,10a-dimethyl-2-(5-methyl-1,3,4-oxadiazole-2-carbonyl)-2,3,3a,4,10,10a-hexahydro-1H,7H-dipyrrolo[3,4-b:3′,4′-f][1,4,5]oxathiazocine-8-carboxamide 5,5-dioxide (Chiral 3aS,10aS or 3aR,10aR - Stereochemistry unknown)]	–	–	pEC50: > 6.00
Cc1nnc(C(=O)N2C[C@H]3COc4c(cn(C)c4C(=O)Nc4ccc(F)c(Cl)c4)S(=O)(=O)N[C@H]3C2)o1 [Example E99, (3aR,10aR)—N-(3-chloro-4-fluorophenyl)-7-methyl-2-(5-methyl-1,3,4-oxadiazole-2-carbonyl)-2,3,3a,4,10,10a-hexahydro-1H,7H-dipyrrolo[3,4-b:3′,4′-f][1,4,5]oxathiazocine-8-carboxamide 5,5-dioxide]	> 6.00	–	–
Cc1cc(NC(=O)c2c3c(cn2C)S(=O)(=O)NC2CN(C(=O)c4ncoc4C)CC2CO3)ccc1F (stereo not drawn) [Example E147, Trans-N-(4-fluoro-3-methylphenyl)-7-methyl-2-(5-methyloxazole-4-carbonyl)-2,3,3a,4,10,10a-hexahydro-1H,7H-dipyrrolo[3,4-b:3′,4′-f][1,4,5]oxathiazocine-8-carboxamide 5,5-dioxide]	> 6.00	–	–
Cn1cc2c(c1C(=O)Nc1cc(F)c(F)c(F)c1)OC[C@@H]1CN(C(=O)c3nnc(N)o3)C[C@@H]1NS2(=O)=O [Example E102, (3aR,10aR)-2-(5-amino-1,3,4-oxadiazole-2-carbonyl)-7-methyl-N-(3,4,5-trifluorophenyl)-2,3,3a,4,10,10a-hexahydro-1H,7H-dipyrrolo[3,4-b:3′,4′-f][1,4,5]oxathiazocine-8-carboxamide 5,5-dioxide]	> 6.00	–	–
Cn1cc2c(c1C(=O)Nc1cc(F)c(F)c(F)c1)OCC1CN(S(=O)(=O)C3CC3)CC1NS2(=O)=O (racemic) [Example E20, cis-2-(cyclopropylsulfonyl)-7-methyl-N-(3,4,5-trifluorophenyl)-2,3,3a,4,10,10a-hexahydro-1H,7H-dipyrrolo[3,4-b:3′,4′-f][1,4,5]oxathiazocine-8-carboxamide 5,5-dioxide]	> 6.00	> 50	–
Cc1cc(NC(=O)c2c3c(cn2C)S(=O)(=O)NC2CNCC2CO3)ccc1F (stereo not drawn) [Example E47, cis-N-(4-fluoro-3-methylphenyl)-7-methyl-2,3,3a,4,10,10a-hexahydro-1H,7H-dipyrrolo[3,4-b:3′,4′-f][1,4,5]oxathiazocine-8-carboxamide 5,5-dioxide hydroiodide]	> 6.00	–	inhibition at 0.05 µM (Hepatitis B virus, 0.05 μM, relative to non-treated reference, read-out: Anti HBV Activity (conc μM)): > 50%
Cn1cc2c(c1C(=O)Nc1cc(F)c(F)c(F)c1)OCC1CN(C(=O)OC(C)(C)C)CC1NS2(=O)=O (racemic) [Example E24, Tert-Butyl (3aS,10aS and 3aR,10aR) 7-methyl-8-((3,4,5-trifluorophenyl)carbamoyl)-3a,4,10,10a-tetrahydro-1H,7H-dipyrrolo[3,4-b:3′,4′-f][1,4,5]oxathiazocine-2(3H)-carboxylate 5,5-dioxide]	–	> 50	–
CNC(=O)N1CC[C@H]2NS(=O)(=O)c3cn(C)c(C(=O)Nc4ccc(F)c(F)c4)c3OC[C@H]21 (single isomer, unassigned) [Example E26]	–	< 50	–
CC(C)NS(=O)(=O)N1CC2COc3c(cn(C)c3C(=O)Nc3cc(F)c(F)c(F)c3)S(=O)(=O)NC2C1 (racemic) [Example E21, cis-2-(N-isopropylsulfamoyl)-7-methyl-N-(3,4,5-trifluorophenyl)-2,3,3a,4,10,10a-hexahydro-1H,7H-dipyrrolo[3,4-b:3′,4′-f][1,4,5]oxathiazocine-8-carboxamide 5,5-dioxide]	> 6.00	> 50	–
Cc1cc(NC(=O)c2c3c(cn2C)S(=O)(=O)N[C@@H]2CN(C(=O)OC(C)(C)C)C[C@H]2CO3)ccc1F (single isomer, unassigned) [Example E151]	> 6.00	–	–
Cc1nnc(N2C[C@H]3COc4c(cn(C)c4C(=O)Nc4cc(F)c(F)c(F)c4)S(=O)(=O)N[C@H]3C2)o1 [Example E120, (3aR,10aR)-7-methyl-2-(5-methyl-1,3,4-oxadiazol-2-yl)-N-(3,4,5-trifluorophenyl)-2,3,3a,4,10,10a-hexahydro-1H,7H-dipyrrolo[3,4-b:3′,4′-f][1,4,5]oxathiazocine-8-carboxamide 5,5-dioxide]	> 6.00	–	–
Cc1nc(C(=O)N2C[C@H]3COc4c(cn(C)c4C(=O)Nc4ccc(F)c(C)c4)S(=O)(=O)N[C@H]3C2)co1 [Example E112, (3aR,10aR)—N-(4-fluoro-3-methylphenyl)-7-methyl-2-(2-methyloxazole-4-carbonyl)-2,3,3a,4,10,10a-hexahydro-1H,7H-dipyrrolo[3,4-b:3′,4′-f][1,4,5]oxathiazocine-8-carboxamide 5,5-dioxide]	> 6.00	–	–
Cn1cc2c(c1C(=O)Nc1ccc(F)c(F)c1)OC1COCC1NS2(=O)=O (racemic) [Example E4, trans-N-(3,4-difluorophenyl)-7-methyl-1,3a,4,9a-tetrahydro-3H,7H-furo[3,4-f]pyrrolo[3,4-b][1,4,5]oxathiazepine-8-carboxamide 5,5-dioxide]	> 6.00	–	inhibition at 1 µM (Hepatitis B virus, 1 μM, relative to non-treated reference, read-out: Anti HBV Activity (conc μM)): > 50%
C[C@H](N)C(=O)N1C[C@@H]2COc3c(cn(C)c3C(=O)Nc3cc(F)c(F)c(F)c3)S(=O)(=O)N[C@@H]2C1 (mixture of isomers) [Example E67, cis-2-(L-alanyl)-7-methyl-N-(3,4,5-trifluorophenyl)-2,3,3a,4,10,10a-hexahydro-1H,7H-dipyrrolo[3,4-b:3′,4′-f][1,4,5]oxathiazocine-8-carboxamide 5,5-dioxide]	–	< 50	–
